The assay deals with T1, PIKfyve (Homo sapiens, UniProt Q9Y2I7).
T1 construct: endogenous in cells; host or cells: VCaP
T1 sequence (Q9Y2I7 whole entry): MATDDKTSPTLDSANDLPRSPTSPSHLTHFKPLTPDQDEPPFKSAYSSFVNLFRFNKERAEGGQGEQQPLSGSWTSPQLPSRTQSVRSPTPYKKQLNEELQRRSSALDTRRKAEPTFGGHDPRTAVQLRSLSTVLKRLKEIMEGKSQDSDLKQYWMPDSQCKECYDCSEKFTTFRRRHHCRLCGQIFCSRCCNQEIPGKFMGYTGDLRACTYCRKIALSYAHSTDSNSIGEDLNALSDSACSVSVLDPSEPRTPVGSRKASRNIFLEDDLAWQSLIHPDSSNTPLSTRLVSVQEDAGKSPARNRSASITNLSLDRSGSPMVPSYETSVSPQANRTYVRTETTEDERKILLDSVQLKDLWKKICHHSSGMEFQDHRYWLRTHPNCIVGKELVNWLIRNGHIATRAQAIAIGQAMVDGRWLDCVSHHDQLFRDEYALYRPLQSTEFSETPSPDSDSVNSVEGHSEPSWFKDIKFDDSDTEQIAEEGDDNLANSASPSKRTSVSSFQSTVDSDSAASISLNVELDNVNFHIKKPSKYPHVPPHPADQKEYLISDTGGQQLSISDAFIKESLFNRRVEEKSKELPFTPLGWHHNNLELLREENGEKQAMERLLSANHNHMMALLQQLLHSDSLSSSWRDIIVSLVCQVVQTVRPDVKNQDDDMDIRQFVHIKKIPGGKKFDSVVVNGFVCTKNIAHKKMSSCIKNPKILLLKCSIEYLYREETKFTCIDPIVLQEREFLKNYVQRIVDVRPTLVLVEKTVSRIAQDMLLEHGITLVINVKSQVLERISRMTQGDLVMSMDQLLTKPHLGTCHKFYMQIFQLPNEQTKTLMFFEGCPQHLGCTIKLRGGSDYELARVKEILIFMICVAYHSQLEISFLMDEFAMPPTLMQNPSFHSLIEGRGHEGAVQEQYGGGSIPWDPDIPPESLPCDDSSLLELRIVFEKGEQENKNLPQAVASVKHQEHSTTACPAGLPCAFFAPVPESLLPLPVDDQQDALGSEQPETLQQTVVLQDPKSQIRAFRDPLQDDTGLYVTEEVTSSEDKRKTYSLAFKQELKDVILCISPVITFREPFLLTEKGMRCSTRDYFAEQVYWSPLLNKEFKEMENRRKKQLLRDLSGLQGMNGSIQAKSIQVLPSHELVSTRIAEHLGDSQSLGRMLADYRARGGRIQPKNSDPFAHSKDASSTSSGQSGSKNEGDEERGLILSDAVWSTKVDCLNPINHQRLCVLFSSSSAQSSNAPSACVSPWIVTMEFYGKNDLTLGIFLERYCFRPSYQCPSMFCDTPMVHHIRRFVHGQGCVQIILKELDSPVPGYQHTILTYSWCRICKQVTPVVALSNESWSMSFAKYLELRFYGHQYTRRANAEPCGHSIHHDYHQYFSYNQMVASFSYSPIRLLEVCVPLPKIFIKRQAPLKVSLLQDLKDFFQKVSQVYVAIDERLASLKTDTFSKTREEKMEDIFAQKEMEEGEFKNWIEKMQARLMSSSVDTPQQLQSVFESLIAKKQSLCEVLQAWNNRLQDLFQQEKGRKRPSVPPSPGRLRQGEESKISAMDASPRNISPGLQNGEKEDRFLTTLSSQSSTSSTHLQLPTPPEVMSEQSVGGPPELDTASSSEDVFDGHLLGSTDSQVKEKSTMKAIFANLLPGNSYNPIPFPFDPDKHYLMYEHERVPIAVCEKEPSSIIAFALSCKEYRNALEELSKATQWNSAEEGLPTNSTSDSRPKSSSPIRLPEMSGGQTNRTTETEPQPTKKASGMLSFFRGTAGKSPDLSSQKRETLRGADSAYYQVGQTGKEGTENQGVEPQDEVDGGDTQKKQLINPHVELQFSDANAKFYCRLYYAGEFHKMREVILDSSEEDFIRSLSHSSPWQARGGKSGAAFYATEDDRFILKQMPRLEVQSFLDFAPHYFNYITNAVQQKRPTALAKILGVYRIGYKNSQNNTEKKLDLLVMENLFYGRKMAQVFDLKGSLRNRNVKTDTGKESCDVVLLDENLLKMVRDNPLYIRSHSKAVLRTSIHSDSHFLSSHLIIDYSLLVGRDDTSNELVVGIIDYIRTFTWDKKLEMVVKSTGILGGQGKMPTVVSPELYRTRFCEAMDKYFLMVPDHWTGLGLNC
Kind of assay: Degradation of PIKfyve proteins in VCaP tumor cells (24 h, Western blot). The class given is cell-based. The following applies: 37° C., compared with DMSO control, WB, read-out: DC50 (concentration that achieves 50% degradation activity). Here is the method:
Method: 200 μL of cells at a density of 5×10^6 cells/ml were inoculated into a 6-well plate, and then different concentrations of drugs were added. The cells were treated at 37° C. for 24 h. The […] was collected and washed with PBS twice. Then, 100-200 μL of 1×SDS lysate was added, and the cell lysate was collected into a centrifuge tube. The cells were disrupted ultrasonically for 10-20 sec, and boiled for 10 min. Protein samples were subjected to SDS-PAGE electrophoresis at a voltage of 90 V, transferred to PVDF membranes at 110 V, blocked with 5% BSA for 4 h, incubated with primary antibodies (PIKfyve, GAPDH) at 4° C. overnight, and incubated with secondary antibodies (anti-Rabbit IgG or anti-Mouse IgG) at room temperature. The membranes were washed with TBST buffer, developed with an ECL developing solution, and then imaged to obtain protein band signals, with single-concentration WB results as shown in FIG. 1. Compared with the DMSO control group, the concentration that achieves 50% degradation activity is defined as DC50.
A general note: Immunoblotting shows a protein as a band on a membrane.
For `Cc1cccc(/C=N/Nc2cc(N3CCOCC3)nc(OCCc3ccc(NC(=O)CCCCCCC(=O)N[C@H](C(=O)N4C[C@H](O)C[C@H]4C(=O)NCc4ccc(-c5scnc5C)cc4)C(C)(C)C)cc3)n2)c1` [Example 39, N^1—((S)-1-((2S,4R)-4-hydroxy-2-((4-(4-methylthiazol-5-yl)benzyl)carbamoyl)pyrrolidine-1-yl)-3,3-dimethyl-1-oxobutan-2-yl)-N^8-(4-(2-((4-(2-((E)-3-methylbenzylidene) hydrazino)-6-morpholinopyrimidin-2-yl)oxy)ethyl)phenyl)octanediamide], the DC50 lay in the range of 0.001 to 0.1 µM.

Consider `Cc1cccc(-c2ccn(-c3cc(N4CCOCC4)nc(Oc4ccc(N5CCC(N6CCN(c7cc8c(cc7F)C(=O)N(C7CCC(=O)NC7=O)C8=O)CC6)CC5)cc4)n3)n2)c1` (stereo not drawn) [Example 94, 2-(2,6-Dioxopiperidin-3-yl)-5-fluoro-6-(4-(1-(4-((4-morpholino-6-(3-(m-tolyl)-1H-pyrazol-1-yl)pyrimidin-2-yl)oxy)phenyl)piperidin-4-yl)piperazin-1-yl)isoindoline-1,3-dione], for which the DC50 is 0.1 to 10 µM. On to `Cc1cccc(/C=N/Nc2cc(N3CCOCC3)nc(OCCc3ccc(NC(=O)CCCCC(=O)N[C@H](C(=O)N4C[C@H](O)C[C@H]4C(=O)NCc4ccc(-c5scnc5C)cc4)C(C)(C)C)cc3)n2)c1` [Example 38, N^1—((S)-1-((2S,4R)-4-hydroxy-2-((4-(4-methylthiazol-5-yl)benzyl)carbamoyl)pyrrolidine-1-yl)-3,3-dimethyl-1-oxobutan-2-yl)-N^6-(4-(2-((4-(2-((E)-3-methylbenzylidene) hydrazino)-6-morpholinopyrimidin-2-yl)oxy)ethyl)phenyl)adipamide], for which the DC50 fell in the range of 0.001 to 0.1 µM. Under `Cc1cccc(/C=N/Nc2cc(N3CCOCC3)nc(OCCc3ccc(NC(=O)CCCCCC(=O)N[C@H](C(=O)N4C[C@H](O)C[C@H]4C(=O)N[C@@H](C)c4ccc(-c5scnc5C)cc4)C(C)(C)C)cc3)n2)c1` [Example 47] stands 0.001 to 0.1 µM; under `Cc1cccc(-c2ccn(-c3cc(N4CCOCC4)nc(OCCc4ccc(C#CC5CCN(C(=O)CCCC[C@H](NC(=O)[C@@H]6C[C@@H](O)CN6C(=O)[C@@H](NC(=O)C6(F)CC6)C(C)(C)C)c6ccc(-c7scnc7C)cc6)CC5)cc4)n3)n2)c1` [Example 72, (2S,4R)-1-((S)-2-(1-fluorocyclopropane-1-carboxamido)-3,3-dimethylbutanoyl)-4-hydroxy-N—((S)-1-(4-(4-methylthiazol-5-yl)phenyl)-6-(4-((4-(2-((4-morpholino-6-(3-(m-tolyl)-1H-pyrazol-1-yl)pyrimidin-2-yl)oxy)ethyl)phenyl)ethynyl)piperidin-1-yl)-6-oxohexyl) pyrrolidine-2-carboxamide], 0.001 to 0.1 µM. Turning to `Cc1cccc(/C=N/Nc2cc(N3CCOCC3)nc(OCCc3ccc(NC(=O)CNC(=O)CC[C@H](NC(=O)[C@@H]4C[C@@H](O)CN4C(=O)[C@@H](NC(=O)C4(F)CC4)C(C)(C)C)c4ccc(-c5scnc5C)cc4)cc3)n2)c1` [Example 50, (2S,4R)-1-((S)-2-(1-fluorocyclopropane-1-carboxamido)-3,3-dimethylbutanoyl)-4-hydroxy-N—((S)-4-((2-((4-(2-((4-(2-((E)-3-methylbenzylidene)hydrazino)-6-morpholinopyrimidin-2-yl)oxy)ethyl)phenyl)amino)-2-oxoethyl)amino)-1-(4-(4-methylthiazol-5-yl)phenyl)4-oxobutyl)pyrrolidine-2-carboxamide], the DC50 fell in the range of 0.001 to 0.1 µM.

Consider `Cc1cccc(-c2ccn(-c3cc(N4CCOCC4)nc(OC4CCN(c5ccc(N6CCN(C(=O)CCCC[C@H](NC(=O)[C@@H]7C[C@@H](O)CN7C(=O)[C@@H](NC(=O)C7(F)CC7)C(C)(C)C)c7ccc(-c8scnc8C)cc7)CC6)cc5)CC4)n3)n2)c1` [Example 86, (2S,4R)-1-((S)-2-(1-fluorocyclopropane-1-carboxamido)-3,3-dimethylbutanoyl)-4-hydroxy-N—((S)-1-(4-(4-methylthiazol-5-yl)phenyl)-6-(4-(4-(4-((4-morpholino-6-(3-(m-tolyl)-1H-pyrazol-1-yl)pyrimidin-2-yl)oxy)piperidin-1-yl)phenyl)piperazin-1-yl)-6-oxohexyl) pyrrolidine-2-carboxamide], for which the DC50 lay within 0.001 to 0.1 µM. The value for `Cc1cccc(/C=N/Nc2cc(N3CCOCC3)nc(OCCc3ccc(NC(=O)CCCCCNC(=O)CC[C@H](NC(=O)[C@@H]4C[C@@H](O)CN4C(=O)[C@@H](NC(=O)C4(F)CC4)C(C)(C)C)c4ccc(-c5scnc5C)cc4)cc3)n2)c1` [Example 52, (2S,4R)-1-((S)-2-(1-fluorocyclopropane-1-carboxamido)-3,3-dimethylbutanoyl)-4-hydroxy-N—((S)-4-((6-((4-(2-((4-(2-((E)-3-methylbenzylidene)hydrazino)-6-morpholinopyrimidin-2-yl)oxy)ethyl)phenyl)amino)-6-oxohexyl)amino)-1-(4-(4-methylthiazol-5-yl)phenyl)4-oxobutyl)pyrrolidine-2-carboxamide] was 0.001 to 0.1 µM; that for `Cc1cccc(/C=N/Nc2cc(N3CCOCC3)nc(OCCc3ccc(NC(=O)CCC(=O)Nc4ccc5c(c4)C(=O)N(C4CCC(=O)NC4=O)C5)cc3)n2)c1` (stereo not drawn) [Example 28, (E)-N^1-(2-(2,6-dioxopiperidin-3-yl)-3-oxoisoindolin-5-yl)-N^4-(4-(2-((4-(2-(3-methylbenzylidene)hydrazino)-6-morpholinopyrimidin-2-yl)oxy)ethyl)phenyl)succinimide] was 0.001 to 0.1 µM; that for `Cc1cccc(-c2ccn(-c3cc(N4CCOCC4)nc(Oc4ccc(N5CCN(CC6CCN(c7cc8c(cc7F)C(=O)N(C7CCC(=O)NC7=O)C8=O)CC6)CC5)cc4)n3)n2)c1` (stereo not drawn) [Example 96, 2-(2,6-Dioxopiperidin-3-yl)-5-fluoro-6-(4-((4-(4-((4-morpholino-6-(3-(m-tolyl)-1H-pyrazol-1-yl)pyrimidin-2-yl)oxy)phenyl)piperazin-1-yl)methyl)piperidin-1-yl)isoindoline-1,3-dione] was 0.1 to 10 µM. Under `Cc1cccc(/C=N/Nc2cc(N3CCOCC3)nc(OCCc3ccc(NC(=O)CNC(=O)CSC(C)(C)[C@H](NC(=O)C4(F)CC4)C(=O)N4C[C@H](O)C[C@H]4C(=O)NCc4ccc(-c5scnc5C)cc4)cc3)n2)c1` [Example 58, (2S,4R)-1-((R)-2-(1-fluorocyclopropane-1-carboxamido)-3-methyl-3-((2-((2-((4-(2-((4-(2-((E)-3-methylbenzylidene)hydrazino)-6-morpholinopyrimidin-2-yl)oxy)ethyl)phenyl)amino)-2-oxoethyl)amino)-2-oxoethyl)thio)butanoyl)-4-hydroxy-N-(4-(4-methylthiazol-5-yl)benzyl)pyrrolidine-2-carboxamide] stands 0.1 to 10 µM; under `Cc1cccc(-c2ccn(-c3cc(N4CCOCC4)nc(OCCc4ccc(-c5ccc(NC(=O)CC[C@H](NC(=O)[C@@H]6C[C@@H](O)CN6C(=O)[C@@H](NC(=O)C6(F)CC6)C(C)(C)C)c6ccc(-c7scnc7C)cc6)cc5)cc4)n3)n2)c1` [Example 88, (2S,4R)-1-((S)-2-(1-fluorocyclopropane-1-carboxamido)-3,3-dimethylbutanoyl)-4-hydroxy-N—((S)-1-(4-(4-methylthiazol-5-yl)phenyl)-4-((4′-(2-((4-morpholino-6-(3-(m-tolyl)-1H-pyrazol-1-yl)pyrimidin-2-yl)oxy)ethyl)-[1,1′-biphenyl]-4-yl)amino)-4-oxobutyl)pyrrolidine-2-carboxamide], 0.001 to 0.1 µM.

Regarding `Cc1cccc(/C=N/Nc2cc(N3CCOCC3)nc(OCCc3ccc(NC(=O)CCCCCNc4cccc5c4C(=O)N(C4CCC(=O)NC4=O)C5=O)cc3)n2)c1` (stereo not drawn) [Example 13, (E)-6-((2-(2,6-dioxopiperidin-3-yl)-1,3-dioxoisoindolin-4-yl)amino)-N-(4-(2-((4-(2-(3-methylbenzylidene)hydrazino)-6-morpholinopyrimidin-2-yl)oxy)ethyl)phenyl)hexanamide], the DC50 lay within 0.1 to 10 µM.

For the compound `Cc1cccc(/C=N/Nc2cc(N3CCOCC3)nc(OCCc3ccc(NC(=O)CCC(=O)N[C@H](C(=O)N4C[C@H](O)C[C@H]4C(=O)NCc4ccc(-c5scnc5C)cc4)C(C)(C)C)cc3)n2)c1` [Example 37, N^1—((S)-1-((2S,4R)-4-hydroxy-2-((4-(4-methylthiazol-5-yl)benzyl)carbamoyl)pyrrolidine-1-yl)-3,3-dimethyl-1-oxobutan-2-yl)-N^4-(4-(2-((4-(2-((E)-3-methylbenzylidene) hydrazino)-6-morpholinopyrimidin-2-yl)oxy)ethyl)phenyl)succinimide], the DC50 lay in the range of 0.1 to 10 µM. In the case of `Cc1cccc(-c2ccn(-c3cc(N4CCOCC4)nc(OC4CCN(c5ccc(NC(=O)NC6CN(C(=O)C[C@H](NC(=O)[C@@H]7C[C@@H](O)CN7C(=O)[C@@H](NC(=O)C7(F)CC7)C(C)(C)C)c7ccc(-c8scnc8C)cc7)C6)cc5)CC4)n3)n2)c1` [Example 80, (2S,4R)-1-((S)-2-(1-fluorocyclopropane-1-carboxamido)-3,3-dimethylbutanoyl)-4-hydroxy-N—((S)-1-(4-(4-methylthiazol-5-yl)phenyl)-3-(3-(3-(4-(4-((4-morpholino-6-(3-(m-tolyl)-1H-pyrazol-1-yl)pyrimidin-2-yl)oxy)piperidin-1-yl)phenyl)ureido)azetidin-1-yl)-3-oxopropyl)pyrrolidine-2-carboxamide], the DC50 was 0.001 to 0.1 µM.

For the origin of these results see patent US20260317299A1, “PIKFYVE PROTEIN KINASE DEGRADATION AGENT AND USE THEREOF” (Shanghai Institute of Organic Chemistry, Chinese Academy of …, priority 2023, published 2026).
